{"source": "patent US9446091B2", "about": "“Caspofungin or salts thereof with high purity, as well as preparation method and use thereof” (Shanghai Techwell Biopharmaceutical Co., Ltd., priority 2011, dated 2016)", "test": "Study on the stability of caspofungin with low solvent residue and hyposaline (storage, then HPLC purity)", "type": "physicochemical", "conditions": "for Purity: HPLC purity after storing at −25~−20° C. for 30 days; for Initial purity: HPLC purity before storage; for stability of the samples (degradation by HPLC analysis): stored at −25-20° C. for 30 days", "protocol": "In the present invention, HPLC is used to determine the purity of caspofungin or salts thereof (the compound of formula 1 or salts thereof), and to investigate the stability of sample. Said HPLC is described as follows:\nChromatographic column: 4.6×250 mm, 5 μm C18 column;\nMobile phase: A: 0.1% aqueous perchloric acid and 0.075% aqueous sodium chloride; B: acetonitrile;\nFlow rate: 1.0 ml/min; Injection volume: 10 μL;\nColumn temperature: 35° C.±5° C.; Detection wavelength: 220 nm; Running time: 60 mins;\nRetention time of major peak: about 27 min;\nThe samples prepared in the above example 3, example 4, example 5, example 6, example 7, example 8 and example 9 were stored at −25-20° C. for 30 days. And then HPLC analysis was applied on these samples.", "data": [{"smiles": "CCC(C)CC(C)CCCCCCCCC(=O)N[C@H]1C[C@@H](O)[C@@H](NCCN)NC(=O)[C@@H]2[C@@H](O)CCN2C(=O)[C@H]([C@H](O)CCN)NC(=O)[C@H]([C@H](O)[C@@H](O)c2ccc(O)cc2)NC(=O)[C@@H]2C[C@@H](O)CN2C(=O)[C@H]([C@@H](C)O)NC1=O", "note": "(single isomer, unassigned) [Example 3, caspofungin diacetate]", "values": [{"measurement": "Purity", "result": 99.90, "unit": "%"}, {"measurement": "Initial purity", "result": 99.90, "unit": "%"}, {"measurement": "stability of the samples (degradation by HPLC analysis)", "result": "no degradation occured"}]}, {"smiles": "CCC(C)CC(C)CCCCCCCCC(=O)N[C@H]1C[C@@H](O)[C@@H](NCCN)NC(=O)[C@@H]2[C@@H](O)CCN2C(=O)[C@H]([C@H](O)CCN)NC(=O)[C@H]([C@H](O)[C@@H](O)c2ccc(O)cc2)NC(=O)[C@@H]2C[C@@H](O)CN2C(=O)[C@H]([C@@H](C)O)NC1=O", "note": "(single isomer, unassigned) [Example 4, caspofungin diacetate]", "values": [{"measurement": "Purity", "result": 99.90, "unit": "%"}, {"measurement": "Initial purity", "result": 99.90, "unit": "%"}, {"measurement": "stability of the samples (degradation by HPLC analysis)", "result": "no degradation occured"}]}, {"smiles": "CCC(C)CC(C)CCCCCCCCC(=O)N[C@H]1C[C@@H](O)[C@@H](NCCN)NC(=O)[C@@H]2[C@@H](O)CCN2C(=O)[C@H]([C@H](O)CCN)NC(=O)[C@H]([C@H](O)[C@@H](O)c2ccc(O)cc2)NC(=O)[C@@H]2C[C@@H](O)CN2C(=O)[C@H]([C@@H](C)O)NC1=O", "note": "(single isomer, unassigned) [Example 5, caspofungin diacetate]", "values": [{"measurement": "Purity", "result": 99.91, "unit": "%"}, {"measurement": "Initial purity", "result": 99.91, "unit": "%"}, {"measurement": "stability of the samples (degradation by HPLC analysis)", "result": "no degradation occured"}]}, {"smiles": "CCC(C)CC(C)CCCCCCCCC(=O)N[C@H]1C[C@@H](O)[C@@H](NCCN)NC(=O)[C@@H]2[C@@H](O)CCN2C(=O)[C@H]([C@H](O)CCN)NC(=O)[C@H]([C@H](O)[C@@H](O)c2ccc(O)cc2)NC(=O)[C@@H]2C[C@@H](O)CN2C(=O)[C@H]([C@@H](C)O)NC1=O", "note": "(single isomer, unassigned) [Example 6, caspofungin diacetate]", "values": [{"measurement": "Purity", "result": 99.92, "unit": "%"}, {"measurement": "Initial purity", "result": 99.92, "unit": "%"}, {"measurement": "stability of the samples (degradation by HPLC analysis)", "result": "no degradation occured"}]}, {"smiles": "CCC(C)CC(C)CCCCCCCCC(=O)N[C@H]1C[C@@H](O)[C@@H](NCCN)NC(=O)[C@@H]2[C@@H](O)CCN2C(=O)[C@H]([C@H](O)CCN)NC(=O)[C@H]([C@H](O)[C@@H](O)c2ccc(O)cc2)NC(=O)[C@@H]2C[C@@H](O)CN2C(=O)[C@H]([C@@H](C)O)NC1=O", "note": "(single isomer, unassigned) [Example 7, caspofungin diacetate]", "values": [{"measurement": "Purity", "result": 99.90, "unit": "%"}, {"measurement": "Initial purity", "result": 99.90, "unit": "%"}, {"measurement": "stability of the samples (degradation by HPLC analysis)", "result": "no degradation occured"}]}, {"smiles": "CCC(C)CC(C)CCCCCCCCC(=O)N[C@H]1C[C@@H](O)[C@@H](NCCN)NC(=O)[C@@H]2[C@@H](O)CCN2C(=O)[C@H]([C@H](O)CCN)NC(=O)[C@H]([C@H](O)[C@@H](O)c2ccc(O)cc2)NC(=O)[C@@H]2C[C@@H](O)CN2C(=O)[C@H]([C@@H](C)O)NC1=O", "note": "(single isomer, unassigned) [Example 8, caspofungin diacetate]", "values": [{"measurement": "Purity", "result": 99.88, "unit": "%"}, {"measurement": "Initial purity", "result": 99.88, "unit": "%"}, {"measurement": "stability of the samples (degradation by HPLC analysis)", "result": "no degradation occured"}]}, {"smiles": "CCC(C)CC(C)CCCCCCCCC(=O)N[C@H]1C[C@@H](O)[C@@H](NCCN)NC(=O)[C@@H]2[C@@H](O)CCN2C(=O)[C@H]([C@H](O)CCN)NC(=O)[C@H]([C@H](O)[C@@H](O)c2ccc(O)cc2)NC(=O)[C@@H]2C[C@@H](O)CN2C(=O)[C@H]([C@@H](C)O)NC1=O", "note": "(single isomer, unassigned) [Example 9, caspofungin diacetate]", "values": [{"measurement": "Purity", "result": 99.86, "unit": "%"}, {"measurement": "Initial purity", "result": 99.86, "unit": "%"}, {"measurement": "stability of the samples (degradation by HPLC analysis)", "result": "no degradation occured"}]}]}
